For one molecule, IC50 results are on record in ChEMBL document CHEMBL6109120, “Discovery of Novel SIK2/3 Inhibitors for the Potential Treatment of MEF2C+ Acute Myeloid Leukemia (AML)” (J Med Chem, 2025).

pIC50: −log10 of the molar value.

Test [1] has as its target T1, Serine/threonine-protein kinase ULK1 (Homo sapiens, UniProt O75385).
T1 sequence (O75385 whole entry): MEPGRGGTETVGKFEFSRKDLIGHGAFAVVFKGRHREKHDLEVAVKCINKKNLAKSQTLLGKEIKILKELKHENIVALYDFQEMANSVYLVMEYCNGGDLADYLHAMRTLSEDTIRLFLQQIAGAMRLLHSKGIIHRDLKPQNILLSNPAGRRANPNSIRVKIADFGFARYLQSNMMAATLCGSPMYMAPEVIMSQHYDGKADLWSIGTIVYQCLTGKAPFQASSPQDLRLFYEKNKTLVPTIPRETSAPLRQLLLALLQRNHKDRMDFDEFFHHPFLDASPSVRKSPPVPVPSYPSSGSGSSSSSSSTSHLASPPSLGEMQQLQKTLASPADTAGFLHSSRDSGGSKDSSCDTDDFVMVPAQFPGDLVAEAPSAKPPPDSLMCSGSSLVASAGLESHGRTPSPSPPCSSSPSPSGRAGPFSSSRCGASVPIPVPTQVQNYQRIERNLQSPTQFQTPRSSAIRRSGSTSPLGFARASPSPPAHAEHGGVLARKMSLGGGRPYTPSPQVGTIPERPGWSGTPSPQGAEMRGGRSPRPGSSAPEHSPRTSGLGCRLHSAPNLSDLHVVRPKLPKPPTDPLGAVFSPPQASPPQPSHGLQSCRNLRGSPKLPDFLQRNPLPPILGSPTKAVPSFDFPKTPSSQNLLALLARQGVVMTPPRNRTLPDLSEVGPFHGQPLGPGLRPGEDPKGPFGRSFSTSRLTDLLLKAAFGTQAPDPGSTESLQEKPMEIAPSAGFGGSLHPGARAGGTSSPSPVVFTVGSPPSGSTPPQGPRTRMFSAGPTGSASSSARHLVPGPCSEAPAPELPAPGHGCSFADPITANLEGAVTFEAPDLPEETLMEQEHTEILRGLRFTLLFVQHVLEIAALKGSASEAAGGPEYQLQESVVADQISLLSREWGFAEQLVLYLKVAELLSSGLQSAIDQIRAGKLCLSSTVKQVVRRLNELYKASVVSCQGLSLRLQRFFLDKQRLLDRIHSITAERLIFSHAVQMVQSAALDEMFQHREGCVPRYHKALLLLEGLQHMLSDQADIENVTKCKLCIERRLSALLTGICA
Description: Binding affinity to human ULK1 by KINOMEscan assay

In test [2] the target is Mast/stem cell growth factor receptor Kit (Homo sapiens, UniProt P10721). The test is described as follows: Binding affinity to human KIT by KINOMEscan assay.
The target of test [3] is T2, Cyclin-G-associated kinase (Homo sapiens, UniProt O14976).
T2 sequence (O14976 whole entry): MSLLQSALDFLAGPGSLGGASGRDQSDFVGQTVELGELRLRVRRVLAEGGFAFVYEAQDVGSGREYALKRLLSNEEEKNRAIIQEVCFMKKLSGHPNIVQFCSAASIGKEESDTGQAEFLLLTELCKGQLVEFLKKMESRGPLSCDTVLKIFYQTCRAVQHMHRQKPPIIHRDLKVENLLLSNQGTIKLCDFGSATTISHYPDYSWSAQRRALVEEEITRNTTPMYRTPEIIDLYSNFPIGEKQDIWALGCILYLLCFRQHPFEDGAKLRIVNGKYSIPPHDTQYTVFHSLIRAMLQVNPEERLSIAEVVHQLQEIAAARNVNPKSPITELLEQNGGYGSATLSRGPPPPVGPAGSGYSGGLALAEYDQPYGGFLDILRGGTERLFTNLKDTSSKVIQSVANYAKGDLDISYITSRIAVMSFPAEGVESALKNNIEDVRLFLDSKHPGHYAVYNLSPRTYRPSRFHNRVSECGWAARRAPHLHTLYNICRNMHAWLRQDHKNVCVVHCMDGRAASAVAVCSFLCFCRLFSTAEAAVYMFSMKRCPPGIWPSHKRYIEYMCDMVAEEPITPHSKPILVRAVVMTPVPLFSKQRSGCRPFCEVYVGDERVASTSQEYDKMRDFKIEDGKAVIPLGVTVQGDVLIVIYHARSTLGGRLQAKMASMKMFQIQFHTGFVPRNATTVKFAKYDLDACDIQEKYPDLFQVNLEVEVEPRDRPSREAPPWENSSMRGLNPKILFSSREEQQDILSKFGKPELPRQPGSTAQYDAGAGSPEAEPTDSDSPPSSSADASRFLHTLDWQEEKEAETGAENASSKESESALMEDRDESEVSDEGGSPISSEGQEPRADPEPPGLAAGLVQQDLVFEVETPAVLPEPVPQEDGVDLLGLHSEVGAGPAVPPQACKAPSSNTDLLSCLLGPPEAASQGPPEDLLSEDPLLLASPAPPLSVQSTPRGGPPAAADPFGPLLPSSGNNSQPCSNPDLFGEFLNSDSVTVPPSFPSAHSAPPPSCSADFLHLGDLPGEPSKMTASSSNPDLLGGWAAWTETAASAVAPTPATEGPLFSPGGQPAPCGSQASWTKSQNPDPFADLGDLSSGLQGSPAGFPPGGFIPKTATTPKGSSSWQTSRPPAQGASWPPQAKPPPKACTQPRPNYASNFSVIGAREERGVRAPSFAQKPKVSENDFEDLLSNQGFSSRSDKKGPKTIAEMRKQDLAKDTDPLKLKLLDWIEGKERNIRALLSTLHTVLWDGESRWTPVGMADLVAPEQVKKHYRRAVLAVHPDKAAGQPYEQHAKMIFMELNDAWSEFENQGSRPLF
Description: Binding affinity to human GAK by KINOMEscan assay

In the next test the target is Cytochrome P450 2C19 (Homo sapiens, UniProt P33261). Kind of test: Inhibition of CYP2C19 in human liver microsomes assessed as S-mephenytoin 4-hydroxylation reaction measured after 30 mins by LC/MS/MS analysis. The test is classed as ADME, Microsome. Background: Liver microsomes are a subcellular fraction often used to study metabolism.
In another test the target is T3, Cytochrome P450 1A2 (Homo sapiens, UniProt P05177).
T3 sequence (P05177 whole entry): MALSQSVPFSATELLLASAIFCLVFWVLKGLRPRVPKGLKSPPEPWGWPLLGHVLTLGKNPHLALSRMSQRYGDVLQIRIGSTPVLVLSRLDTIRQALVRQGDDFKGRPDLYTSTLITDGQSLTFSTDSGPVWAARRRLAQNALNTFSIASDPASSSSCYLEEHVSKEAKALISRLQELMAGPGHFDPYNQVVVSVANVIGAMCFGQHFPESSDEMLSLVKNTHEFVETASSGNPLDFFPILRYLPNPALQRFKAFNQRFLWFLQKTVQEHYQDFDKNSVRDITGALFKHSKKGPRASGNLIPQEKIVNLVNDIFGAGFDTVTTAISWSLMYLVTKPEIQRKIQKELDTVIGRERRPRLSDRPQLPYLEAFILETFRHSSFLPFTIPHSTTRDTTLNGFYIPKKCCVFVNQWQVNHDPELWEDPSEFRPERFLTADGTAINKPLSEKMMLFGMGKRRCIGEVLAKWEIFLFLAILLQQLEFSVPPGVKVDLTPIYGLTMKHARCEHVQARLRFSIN
Kind of test: Inhibition of CYP1A2 in human liver microsomes assessed as Phenacetin O-deethylation reaction measured after 30 mins by LC/MS/MS analysis. The test is classed as ADME, Microsome.

In test [4] the target is Tyrosine-protein kinase Lck (Homo sapiens, UniProt P06239). Kind of test: Binding affinity to human LCK by KINOMEscan assay.
Tyrosine-protein kinase Lck, sequence (P06239 whole entry): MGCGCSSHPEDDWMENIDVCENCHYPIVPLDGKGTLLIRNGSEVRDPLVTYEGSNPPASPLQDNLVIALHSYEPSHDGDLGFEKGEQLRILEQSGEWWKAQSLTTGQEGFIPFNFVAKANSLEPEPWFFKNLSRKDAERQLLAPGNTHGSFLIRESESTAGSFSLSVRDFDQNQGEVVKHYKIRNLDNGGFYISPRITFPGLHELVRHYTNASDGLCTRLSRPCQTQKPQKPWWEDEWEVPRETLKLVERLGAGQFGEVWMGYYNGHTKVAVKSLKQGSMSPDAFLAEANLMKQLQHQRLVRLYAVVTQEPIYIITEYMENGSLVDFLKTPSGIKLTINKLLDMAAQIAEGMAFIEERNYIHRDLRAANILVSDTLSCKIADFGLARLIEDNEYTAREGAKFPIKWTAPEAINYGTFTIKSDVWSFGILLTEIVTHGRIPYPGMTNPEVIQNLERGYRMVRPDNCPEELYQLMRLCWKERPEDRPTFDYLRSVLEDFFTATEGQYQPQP

Mast/stem cell growth factor receptor Kit, sequence (P10721 whole entry): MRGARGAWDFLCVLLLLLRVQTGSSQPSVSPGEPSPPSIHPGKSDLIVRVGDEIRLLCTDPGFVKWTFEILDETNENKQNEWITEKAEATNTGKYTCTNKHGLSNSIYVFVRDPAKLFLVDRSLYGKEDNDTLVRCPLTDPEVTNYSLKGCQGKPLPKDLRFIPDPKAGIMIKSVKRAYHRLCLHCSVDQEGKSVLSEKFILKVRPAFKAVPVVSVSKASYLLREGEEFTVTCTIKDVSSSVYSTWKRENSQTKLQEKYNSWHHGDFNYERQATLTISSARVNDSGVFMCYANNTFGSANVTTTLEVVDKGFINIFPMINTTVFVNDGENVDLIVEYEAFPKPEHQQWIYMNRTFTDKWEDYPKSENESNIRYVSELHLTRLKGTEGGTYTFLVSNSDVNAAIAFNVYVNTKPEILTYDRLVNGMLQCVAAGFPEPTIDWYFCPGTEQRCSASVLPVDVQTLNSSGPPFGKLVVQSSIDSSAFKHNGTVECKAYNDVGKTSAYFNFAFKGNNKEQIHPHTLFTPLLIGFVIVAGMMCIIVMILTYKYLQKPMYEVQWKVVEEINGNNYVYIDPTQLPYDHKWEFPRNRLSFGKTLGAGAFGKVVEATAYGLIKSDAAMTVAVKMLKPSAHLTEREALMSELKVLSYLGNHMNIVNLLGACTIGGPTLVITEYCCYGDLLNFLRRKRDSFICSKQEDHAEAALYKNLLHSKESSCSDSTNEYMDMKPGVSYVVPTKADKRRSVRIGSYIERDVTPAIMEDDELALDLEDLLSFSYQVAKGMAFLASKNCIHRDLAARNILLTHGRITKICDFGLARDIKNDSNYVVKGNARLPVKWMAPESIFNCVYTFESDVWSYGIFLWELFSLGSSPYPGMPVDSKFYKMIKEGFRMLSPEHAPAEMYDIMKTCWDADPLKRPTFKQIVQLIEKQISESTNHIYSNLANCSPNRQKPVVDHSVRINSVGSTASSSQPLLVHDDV
Cytochrome P450 2C19, sequence (P33261 whole entry): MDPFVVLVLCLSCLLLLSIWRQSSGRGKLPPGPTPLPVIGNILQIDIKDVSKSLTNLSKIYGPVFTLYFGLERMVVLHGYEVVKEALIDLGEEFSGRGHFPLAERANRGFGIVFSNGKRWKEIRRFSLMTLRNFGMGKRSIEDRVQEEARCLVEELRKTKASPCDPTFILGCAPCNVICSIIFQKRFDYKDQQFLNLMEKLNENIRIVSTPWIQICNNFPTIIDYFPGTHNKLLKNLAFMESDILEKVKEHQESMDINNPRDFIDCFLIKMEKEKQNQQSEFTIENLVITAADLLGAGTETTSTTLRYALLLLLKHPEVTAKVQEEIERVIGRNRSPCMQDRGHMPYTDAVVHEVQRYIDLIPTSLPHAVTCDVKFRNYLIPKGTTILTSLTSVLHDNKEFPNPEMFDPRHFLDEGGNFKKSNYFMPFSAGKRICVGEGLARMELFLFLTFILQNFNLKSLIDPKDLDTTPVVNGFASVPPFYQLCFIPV

In the case of `COc1nc(-c2cc(-c3cnn(C)c3)cnc2N)cc2c1C(=O)N(CC(F)(F)F)CC2`, the pIC50 (usually −log10 of the IC50, conventionally taken in molar units) in test [1] is 6.23; in test [2] it was 6.23; in test [3], 6.31; at Cytochrome P450 2C19, < 4.30; on Cytochrome P450 1A2, < 4.30; in test [4] it was 6.49.
